Here are results for two compounds from US5145781A (priority 1989, dated 1992).

The nature of data set [1]: Water-solubility, light-resistance and stability (general statements). The class given is physicochemical.
For data set [2] the following is noted: cited from earlier work.
The subject of the next data set is 7 week-old dd mice. Put plainly: Acute toxicity test, oral administration to mice. The class given is in vivo. The following applies: orally administered.
The next data set relates to alpha-glucosidase. Briefly: Hydrolysis by alpha-glucosidase from pig liver. Particulars: alpha-glucosidase extracted from pig liver, partially purified. It counts as biochemical.

On to `C[C@@H]1O[C@@H](OC[C@H]2O[C@@H](Oc3c(-c4ccc(O)c(O)c4)oc4cc(O)cc(O)c4c3=O)[C@H](O)[C@@H](O)[C@@H]2O)[C@H](O)[C@H](O)[C@H]1O` [rutin], for which the “stability in an alkaline solution” value in data set [1] was “tends to readily decompose”. The solubility in water result in data set [2] (ambient temperature) is “about 0.01 w/v %”. Moreover, the “solubility in water, in words” value in data set [2] is reported as “hardly soluble in water”.
On to `C[C@@H]1O[C@@H](OC[C@H]2O[C@@H](Oc3c(-c4ccc(O)c(O)c4)oc4cc(O)cc(O)c4c3=O)[C@H](O)[C@@H](O)[C@@H]2O[C@H]2O[C@H](CO)[C@@H](O)[C@H](O)[C@H]2O)[C@H](O)[C@H](O)[C@H]1O` [Example A-2, alpha-glucosyl rutin], for which, in the data set on 7 week-old dd mice, the “acute toxicity, in words” value was “extremely low”. In addition, the mortality result in the data set with 7 week-old dd mice (up to 5g, higher dose was difficult) is recorded as “the same result”. The hydrolysis by alpha-glucosidase result in the data set on alpha-glucosidase was “hydrolyzed the alphaglucosyl rutin into rutin and D-glucose”.
